Data: ChEMBL document CHEMBL3885861, “Open TG-GATES”

Organism: Rattus norvegicus
Experiment: Open TG-GATES - Regimen: Daily Repeat
Format: toxicity, organism-based, Sprague-Dawley
Set-up: regimen Daily Repeat, gender Male, age 6 weeks
Conditions: in vivo, po, route gavage; for APTT / Bas / Eos / Fbg / Hb / Ht / Lym / MCH / MCHC / MCV / Mono / Neu / PT / Plat / RBC / Ret / WBC: tissue Blood; for KIDNEY_L / KIDNEY_R / KIDNEY_TOTAL: tissue Kidney; for LIVER: tissue Liver; for A/G / ALP / ALT / AST / BUN / CRE / Ca / Cl / DBIL / GLC / IP / K / LDH / Na / PL / RALB / TBIL / TC / TG / TP / gamma-GTP: tissue Plasma
[1] = 0 mg/kg, 72 h, dose level Control, time 3 day
[2] = 0 mg/kg, […], dose level Control, time 7 day
[3] = 0 mg/kg, […], dose level Control, time 14 day
[4] = 0 mg/kg, […], dose level Control, time 28 day
[5] = 30 mg/kg, 72 h, dose level Low, time 3 day
[6] = 30 mg/kg, […], dose level Low, time 7 day
[7] = 30 mg/kg, […], dose level Low, time 14 day
[8] = 30 mg/kg, […], dose level Low, time 28 day

ClC(Cl)(Cl)Cl [CARBON TETRACHLORIDE]
TERMINAL_BW [1]: 223.2 g
APTT [1]: 17 s
Bas [1]: 0%
Eos [1]: 1%
Fbg [1]: 234.4 mg/dL
Hb [1]: 13.7 g/dL
Ht [1]: 40.1%
Lym [1]: 82.4%
MCH [1]: 21.8 pg
MCHC [1]: 34.2%
MCV [1]: 63.7 fL
Mono [1]: 2.8%
Neu [1]: 13%
PT [1]: 11.6 s
Plat [1]: 129.5 x10_4/uL
RBC [1]: 629.2 x10_4/ul
Ret [1]: 7.4%
WBC [1]: 96.4 x10_2/uL
KIDNEY_L [1]: 0.9 g
KIDNEY_R [1]: 1 g
KIDNEY_TOTAL [1]: 1.9 g
LIVER [1]: 10.9 g
A/G [1]: 1.5
ALP [1]: 1075.2 IU/L
ALT [1]: 44.8 IU/L
AST [1]: 71.2 IU/L
BUN [1]: 16.2 mg/dL
CRE [1]: 0.4 mg/dL
Ca [1]: 10.9 mg/dL
Cl [1]: 103 meq/L
DBIL [1]: 0.08 mg/dL
GLC [1]: 206.4 mg/dL
IP [1]: 7.5 mg/dL
K [1]: 3.9 meq/L
LDH [1]: 208.6 IU/L
Na [1]: 140 meq/L
PL [1]: 155.4 mg/dL
RALB [1]: 3.2 g/dL
TBIL [1]: 0.1 mg/dL
TC [1]: 82.4 mg/dL
TG [1]: 86.6 mg/dL
TP [1]: 5.5 g/dL
gamma-GTP [1]: 1 IU/L
TERMINAL_BW [2]: 257 g
TERMINAL_BW [3]: 300.9 g
TERMINAL_BW [4]: 389 g
APTT [2]: 18.3 s
Bas [2]: 0%
Eos [2]: 1%
Fbg [2]: 249.4 mg/dL
Hb [2]: 13.9 g/dL
Ht [2]: 40.1%
Lym [2]: 84.6%
MCH [2]: 21.6 pg
MCHC [2]: 34.8%
MCV [2]: 61.9 fL
Mono [2]: 2.6%
Neu [2]: 11.2%
PT [2]: 11.5 s
Plat [2]: 129.8 x10_4/uL
RBC [2]: 647.4 x10_4/ul
Ret [2]: 6.1%
WBC [2]: 111 x10_2/uL
APTT [3]: 20.1 s
Bas [3]: 0%
Eos [3]: 0.8%
Fbg [3]: 239 mg/dL
Hb [3]: 14.6 g/dL
Ht [3]: 42.9%
Lym [3]: 80.8%
MCH [3]: 20 pg
MCHC [3]: 34%
MCV [3]: 58.9 fL
Mono [3]: 2.6%
Neu [3]: 15%
PT [3]: 11.5 s
Plat [3]: 124 x10_4/uL
RBC [3]: 728 x10_4/ul
Ret [3]: 3.9%
WBC [3]: 114.8 x10_2/uL
APTT [4]: 22.7 s
Bas [4]: 0%
Eos [4]: 1%
Fbg [4]: 227.4 mg/dL
Hb [4]: 15.1 g/dL
Ht [4]: 43.7%
Lym [4]: 83.8%
MCH [4]: 19.3 pg
MCHC [4]: 34.6%
MCV [4]: 55.7 fL
Mono [4]: 2.6%
Neu [4]: 11.8%
PT [4]: 11.9 s
Plat [4]: 120.7 x10_4/uL
RBC [4]: 785.8 x10_4/ul
Ret [4]: 2.8%
WBC [4]: 121 x10_2/uL
KIDNEY_L [2]: 1 g
KIDNEY_R [2]: 1 g
KIDNEY_TOTAL [2]: 2.1 g
KIDNEY_L [3]: 1.2 g
KIDNEY_R [3]: 1.1 g
KIDNEY_TOTAL [3]: 2.3 g
KIDNEY_L [4]: 1.3 g
KIDNEY_R [4]: 1.4 g
KIDNEY_TOTAL [4]: 2.7 g
LIVER [2]: 12.5 g
LIVER [3]: 12.6 g
LIVER [4]: 16.7 g
A/G [2]: 1.7
ALP [2]: 922.4 IU/L
ALT [2]: 34.2 IU/L
AST [2]: 62.4 IU/L
BUN [2]: 16.2 mg/dL
CRE [2]: 0.4 mg/dL
Ca [2]: 10.7 mg/dL
Cl [2]: 104 meq/L
DBIL [2]: 0.1 mg/dL
GLC [2]: 204.2 mg/dL
IP [2]: 7.4 mg/dL
K [2]: 4.2 meq/L
LDH [2]: 201.8 IU/L
Na [2]: 139.8 meq/L
PL [2]: 165.4 mg/dL
RALB [2]: 3.5 g/dL
TBIL [2]: 0.2 mg/dL
TC [2]: 81.8 mg/dL
TG [2]: 126.4 mg/dL
TP [2]: 5.5 g/dL
gamma-GTP [2]: 1.2 IU/L
A/G [3]: 1.4
ALP [3]: 813 IU/L
ALT [3]: 29.8 IU/L
AST [3]: 60.2 IU/L
BUN [3]: 14 mg/dL
CRE [3]: 0.5 mg/dL
Ca [3]: 10.4 mg/dL
Cl [3]: 103.8 meq/L
DBIL [3]: 0.062 mg/dL
GLC [3]: 215.8 mg/dL
IP [3]: 7.3 mg/dL
K [3]: 3.7 meq/L
LDH [3]: 209.6 IU/L
Na [3]: 142.4 meq/L
PL [3]: 135.6 mg/dL
RALB [3]: 3.5 g/dL
TBIL [3]: 0.1 mg/dL
TC [3]: 69 mg/dL
TG [3]: 73.4 mg/dL
TP [3]: 5.9 g/dL
gamma-GTP [3]: 1 IU/L
A/G [4]: 1.4
ALP [4]: 495 IU/L
ALT [4]: 31.2 IU/L
AST [4]: 60.4 IU/L
BUN [4]: 16.4 mg/dL
CRE [4]: 0.5 mg/dL
Ca [4]: 10.5 mg/dL
Cl [4]: 102.2 meq/L
DBIL [4]: 0.07 mg/dL
GLC [4]: 238 mg/dL
IP [4]: 6.9 mg/dL
K [4]: 3.9 meq/L
LDH [4]: 211.6 IU/L
Na [4]: 140.4 meq/L
PL [4]: 143.8 mg/dL
RALB [4]: 3.5 g/dL
TBIL [4]: 0.1 mg/dL
TC [4]: 72.4 mg/dL
TG [4]: 83 mg/dL
TP [4]: 6 g/dL
gamma-GTP [4]: 0.8 IU/L
TERMINAL_BW [5]: 222 g
APTT [5]: 18.7 s
Bas [5]: 0%
Eos [5]: 1%
Fbg [5]: 237.4 mg/dL
Hb [5]: 13.4 g/dL
Ht [5]: 39.2%
Lym [5]: 77.4%
MCH [5]: 22.1 pg
MCHC [5]: 34.1%
MCV [5]: 64.8 fL
Mono [5]: 2.4%
Neu [5]: 18.8%
PT [5]: 11.6 s
Plat [5]: 134.7 x10_4/uL
RBC [5]: 606.8 x10_4/ul
Ret [5]: 7.5%
WBC [5]: 108.2 x10_2/uL
KIDNEY_L [5]: 1 g
KIDNEY_R [5]: 1 g
KIDNEY_TOTAL [5]: 1.9 g
LIVER [5]: 11.4 g
A/G [5]: 1.4
ALP [5]: 1206 IU/L
ALT [5]: 44.4 IU/L
AST [5]: 65.8 IU/L
BUN [5]: 15.2 mg/dL
CRE [5]: 0.4 mg/dL
Ca [5]: 10.8 mg/dL
Cl [5]: 103.4 meq/L
DBIL [5]: 0.072 mg/dL
GLC [5]: 197.8 mg/dL
IP [5]: 7.3 mg/dL
K [5]: 4 meq/L
LDH [5]: 206.4 IU/L
Na [5]: 140.6 meq/L
PL [5]: 166 mg/dL
RALB [5]: 3.2 g/dL
TBIL [5]: 0.1 mg/dL
TC [5]: 86.6 mg/dL
TG [5]: 72.6 mg/dL
TP [5]: 5.6 g/dL
gamma-GTP [5]: 1.4 IU/L
TERMINAL_BW [6]: 246 g
TERMINAL_BW [7]: 300.3 g
TERMINAL_BW [8]: 401.4 g
APTT [6]: 19.6 s
Bas [6]: 0%
Eos [6]: 0.8%
Fbg [6]: 232.6 mg/dL
Hb [6]: 14.1 g/dL
Ht [6]: 41%
Lym [6]: 82%
MCH [6]: 21.2 pg
MCHC [6]: 34.5%
MCV [6]: 61.7 fL
Mono [6]: 2.6%
Neu [6]: 14%
PT [6]: 11.9 s
Plat [6]: 112.6 x10_4/uL
RBC [6]: 666.4 x10_4/ul
Ret [6]: 5.5%
WBC [6]: 96.8 x10_2/uL
APTT [7]: 20.3 s
Bas [7]: 0%
Eos [7]: 0.8%
Fbg [7]: 238.4 mg/dL
Hb [7]: 14.6 g/dL
Ht [7]: 43%
Lym [7]: 80%
MCH [7]: 20.1 pg
MCHC [7]: 33.9%
MCV [7]: 59.4 fL
Mono [7]: 2%
Neu [7]: 16.8%
PT [7]: 12 s
Plat [7]: 113.3 x10_4/uL
RBC [7]: 724.8 x10_4/ul
Ret [7]: 3.7%
WBC [7]: 110.3 x10_2/uL
APTT [8]: 21.2 s
Bas [8]: 0%
Eos [8]: 1%
Fbg [8]: 238 mg/dL
Hb [8]: 14.8 g/dL
Ht [8]: 43.3%
Lym [8]: 85.4%
MCH [8]: 19.1 pg
MCHC [8]: 34.2%
MCV [8]: 55.8 fL
Mono [8]: 2.8%
Neu [8]: 10.2%
PT [8]: 12.3 s
Plat [8]: 113.3 x10_4/uL
RBC [8]: 776.8 x10_4/ul
Ret [8]: 2.8%
WBC [8]: 104.8 x10_2/uL
KIDNEY_L [6]: 1 g
KIDNEY_R [6]: 1 g
KIDNEY_TOTAL [6]: 2.1 g
KIDNEY_L [7]: 1.2 g
KIDNEY_R [7]: 1.2 g
KIDNEY_TOTAL [7]: 2.3 g
KIDNEY_L [8]: 1.3 g
KIDNEY_R [8]: 1.3 g
KIDNEY_TOTAL [8]: 2.7 g
LIVER [6]: 12.4 g
LIVER [7]: 14.4 g
LIVER [8]: 19.2 g
A/G [6]: 1.6
ALP [6]: 1004.8 IU/L
ALT [6]: 39.2 IU/L
AST [6]: 70.8 IU/L
BUN [6]: 14.8 mg/dL
CRE [6]: 0.4 mg/dL
Ca [6]: 10.7 mg/dL
Cl [6]: 104.8 meq/L
DBIL [6]: 0.076 mg/dL
GLC [6]: 200.8 mg/dL
IP [6]: 7.7 mg/dL
K [6]: 4.1 meq/L
LDH [6]: 202 IU/L
Na [6]: 141.6 meq/L
PL [6]: 159.8 mg/dL
RALB [6]: 3.5 g/dL
TBIL [6]: 0.1 mg/dL
TC [6]: 75.2 mg/dL
TG [6]: 87.2 mg/dL
TP [6]: 5.6 g/dL
gamma-GTP [6]: 1.2 IU/L
A/G [7]: 1.5
ALP [7]: 898.4 IU/L
ALT [7]: 42.2 IU/L
AST [7]: 75 IU/L
BUN [7]: 15.4 mg/dL
CRE [7]: 0.4 mg/dL
Ca [7]: 10.5 mg/dL
Cl [7]: 103.4 meq/L
DBIL [7]: 0.056 mg/dL
GLC [7]: 201.4 mg/dL
IP [7]: 8 mg/dL
K [7]: 3.7 meq/L
LDH [7]: 207.4 IU/L
Na [7]: 141.6 meq/L
PL [7]: 138.6 mg/dL
RALB [7]: 3.6 g/dL
TBIL [7]: 0.1 mg/dL
TC [7]: 67.4 mg/dL
TG [7]: 55 mg/dL
TP [7]: 6 g/dL
gamma-GTP [7]: 1 IU/L
A/G [8]: 1.3
ALP [8]: 634.2 IU/L
ALT [8]: 40 IU/L
AST [8]: 75.2 IU/L
BUN [8]: 17.2 mg/dL
CRE [8]: 0.4 mg/dL
Ca [8]: 10.6 mg/dL
Cl [8]: 102.2 meq/L
DBIL [8]: 0.072 mg/dL
GLC [8]: 211.2 mg/dL
IP [8]: 6.6 mg/dL
K [8]: 3.9 meq/L
LDH [8]: 228 IU/L
Na [8]: 140.6 meq/L
PL [8]: 132 mg/dL
RALB [8]: 3.5 g/dL
TBIL [8]: 0.1 mg/dL
TC [8]: 59.6 mg/dL
TG [8]: 86.6 mg/dL
TP [8]: 6.2 g/dL
gamma-GTP [8]: 0.8 IU/L
